Patent US20230172204A1 (BASF SE, priority 2020, published 2023)

Columns and labels:
[1] = system: Alternaria solani (F129L); test: Micro titer plate test against Alternaria solani causing early blight (ALTESO F129L); type: cell-based; details: Alternaria solani, 168 h; 0.016 ppm; read-out: Fungal growth (%) ALTESO F129L
[2] = system: Pyricularia oryzae; test: microbe, parasite or virus in culture; type: cell-based; details: Pyricularia oryzae, 168 h, read-out: Fungal growth (%) PYRIOR
[3] = system: Microdochium nivale; test: Micro titer plate test against Microdochium nivale causing snow mould (MONGNI); type: cell-based; details: Microdochium nivale, 168 h; 0.016 ppm; read-out: Fungal growth (%) MONGNI
[4] = system: Alternaria solani (wt); test: microbe, parasite or virus in culture; type: cell-based; details: Alternaria solani, 168 h; 0.016 ppm; read-out: Fungal growth (%) ALTESO wt
[5] = system: Colletotrichum orbiculare; test: Micro titer plate test against Colletotrichum orbiculare causing anthracnose (COLLLA); type: cell-based; details: Colletotrichum orbiculare, 168 h, read-out: Fungal growth (%) COLLLA
[6] = system: Septoria tritici; test: microbe, parasite or virus in culture; type: cell-based; details: Zymoseptoria tritici, 168 h, read-out: Fungal growth (%) SEPTTR
[7] = system: Cercospora sojina; test: microbe, parasite or virus in culture; type: cell-based; details: Cercospora sojina, 168 h; 4 ppm; read-out: Fungal growth (%) CERCSO
[8] = system: Pyrenophora teres (wt); test: Micro titer plate test against Pyrenophora teres causing net blotch on barley (PYRNTE wt); type: cell-based; details: 168 h, read-out: Fungal growth (%) PYRNTE wt
[9] = system: Leptosphaeria nodorum; test: Micro titer plate test against Leptosphaeria nodorum causing wheat leaf spots (LEPTNO); type: cell-based; details: Parastagonospora nodorum, 168 h; 0.063 ppm; read-out: Fungal growth (%) LEPTNO
[10] = system: Phakopsora pachyrhizi (F129L); test: Protective control of soybean rust on soybeans (PHAKPA P2); type: in vivo; details: for % PHAKPA (F129L) Disease level P2 at 4 ppm: protective P2, 4 ppm; for % PHAKPA (F129L) Disease level P2 at 4 ppm / % PHAKPA (F129L) Disease level P2 at 16 ppm: soybean rust F129L; for % PHAKPA (F129L) Disease level P2 at 16 ppm: protective P2, 16 ppm
[11] = system: Phakopsora pachyrhizi (F129L); test: Protective control of soybean rust on soybeans (PHAKPA P6); type: in vivo; details: for % PHAKPA (F129L) Disease level P6 at 4 ppm: protective P6, 4 ppm; for % PHAKPA (F129L) Disease level P6 at 4 ppm / % PHAKPA (F129L) Disease level P6 at 16 ppm: soybean rust F129L; for % PHAKPA (F129L) Disease level P6 at 16 ppm: protective P6, 16 ppm; for PHAKPA (F129L) Disease level (%) P6 at 4 ppm / PHAKPA (F129L) Disease level (%) P6 at 16 ppm: P6 protective, % diseased leaf area
[12] = P2 protective, % diseased leaf area

Compound | activity at 0.016 ppm [1] [%] | activity at 0.016 ppm [2] [%] | activity at 0.016 ppm [4] [%] | activity at 0.063 ppm [5] [%] | activity at 0.25 ppm [6] [%] | activity at 4 ppm [7] [%] | activity at 0.063 ppm [9] [%] | % PHAKPA (F129L) Disease level P2 at 4 ppm [10] [%] | % PHAKPA (F129L) Disease level P2 at 16 ppm [10] [%] | % PHAKPA (F129L) Disease level P6 at 4 ppm [11] [%] | % PHAKPA (F129L) Disease level P6 at 16 ppm [11] [%] | further results
Cc1cccc(-n2nnn(C)c2=O)c1COc1ccn(-c2ccc(Cl)cc2)n1 [drawing 928] | 100 | 87 | 98 |  |  |  |  |  |  |  |  | activity at 0.016 ppm [3]: 97%
CNC(=O)/C(=N/OC)c1cccc(C)c1CO/N=C(\OC)c1cccc(C)c1 [drawing 957] | 95 | 80 | 93 | 81 | 100 |  |  |  |  |  |  | 
CO/N=C(/C(=O)OC)c1cccc(C)c1CO/N=C(/c1cccc(C)c1)C1CC1 [drawing 955] | 87 |  | 100 |  |  | 87 | 100 |  |  |  |  | activity at 0.25 ppm [8]: 78%
CNC(=O)/C(=N/OC)c1cccc(C)c1CO/N=C(/c1cccc(C)c1)C1CC1 [drawing 958] | 93 | 81 | 89 | 93 | 87 |  |  |  |  |  |  | 
CO/N=C(/C(=O)OC)c1cccc(C)c1CO/N=C(/c1cccc(Cl)c1)C1CC1 [drawing 961] | 89 | 83 | 81 | 89 | 39 |  |  |  |  |  |  | 
CO/N=C(/C(=O)OC)c1cccc(C)c1CO/N=C(\OC)c1cccc(C(F)(F)F)c1 [drawing 942] |  | 58 |  |  |  | 56 | 100 |  |  |  |  | 
CO/N=C(/C(=O)OC)c1cccc(C)c1CO/N=C(\C)c1cccc(Cl)c1 [Ex. 153] | 68 | 50 | 71 | 55 | 0 | 26 | 55 | 12 | 3 | 22 | 1 | PHAKPA (F129L) Disease level (%) P2 at 4 ppm ([10]; P2 protective, 4 ppm, % diseased leaf area): 19%; PHAKPA (F129L) Disease level (%) P2 at 16 ppm [10, 12]: 5%; activity at 0.016 ppm [3]: 75%; activity at 0.25 ppm [8]: 31%
CO/N=C(/C(=O)OC)c1cccc(C)c1CO/N=C(\C)c1cccc(C(F)(F)F)c1 [Ex. 9] |  | 38 | 73 |  |  | 11 | 67 | 35 | 23 | 41 | 4 | PHAKPA (F129L) Disease level (%) P2 at 16 ppm [10, 12]: 23%; activity at 0.025 ppm ([8]; 0.025 ppm): 44%; PHAKPA (F129L) Disease level (%) P6 at 4 ppm [11]: 41%
CNC(=O)/C(=N/OC)c1cccc(C)c1CO/N=C(\SC)c1cccc(C(F)(F)F)c1 [drawing 944] | 85 | 49 |  |  |  | 66 | 93 |  |  |  |  | activity at 0.016 ppm [3]: 84%
CNC(=O)/C(=N/OC)c1cccc(C)c1CO/N=C(\SC)c1cccc(C(F)(F)F)c1 [drawing 984, reference compound] |  |  |  |  |  |  |  |  |  |  |  | PHAKPA (F129L) Disease level (%) P2 at 1 ppm ([10]; P2 protective, 1 ppm, % diseased leaf area): 32%; PHAKPA (F129L) Disease level (%) P6 at 4 ppm [11]: 43%
COC=C(C(=O)OC)c1cccc(C)c1CON=C(C)c1ccccc1C(F)(F)F [Ex. 244] |  |  |  |  |  |  |  | 14 | 0 | 15 | 2 | PHAKPA (F129L) Disease level (%) P2 at 16 ppm [10, 12]: 0%; PHAKPA (F129L) Disease level (%) P6 at 16 ppm [11]: 2%
CO/N=C(/C(=O)OC)c1cccc(C)c1CO/N=C(\SC)c1cccc(Cl)c1 [drawing 960] | 100 | 88 | 94 | 82 | 39 |  |  |  |  |  |  | 
CO/N=C(/C(=O)OC)c1cccc(CF)c1CO/N=C(\C)c1cccc(C(F)(F)F)c1 [compound 25] |  |  |  |  |  |  |  | 16 | 3 | 50 | 2 | 
CNC(=O)/C(=N/OC)c1cccc(C)c1CO/N=C(\C)c1cccc(C(F)F)c1 [Ex. 12] |  |  |  |  |  |  |  | 25 | 1 | 37 | 9 | PHAKPA (F129L) Disease level (%) P2 at 16 ppm [10, 12]: 3%; PHAKPA (F129L) Disease level (%) P6 at 16 ppm [11]: 9%
